Among the data in US12145927B2 (BRISTOL-MYERS SQUIBB COMPANY, priority 2018, dated 2024) are IC50 values, retold here.

The target of this assay is T1, human IDO1 (Homo sapiens, UniProt P14902).
T1 construct: expressed in transfected cells
T1 sequence (P14902 whole entry): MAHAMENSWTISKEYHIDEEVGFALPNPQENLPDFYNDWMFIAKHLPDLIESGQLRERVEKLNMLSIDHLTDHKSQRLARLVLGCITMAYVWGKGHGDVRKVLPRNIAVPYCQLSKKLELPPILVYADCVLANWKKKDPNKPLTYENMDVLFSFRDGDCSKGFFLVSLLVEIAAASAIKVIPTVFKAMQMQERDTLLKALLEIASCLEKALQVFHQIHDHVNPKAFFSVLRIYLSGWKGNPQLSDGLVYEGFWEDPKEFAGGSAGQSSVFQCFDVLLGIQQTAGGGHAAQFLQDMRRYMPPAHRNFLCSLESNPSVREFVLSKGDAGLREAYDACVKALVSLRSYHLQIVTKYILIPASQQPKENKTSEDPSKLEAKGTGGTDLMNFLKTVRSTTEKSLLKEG
Briefly: IDO inhibition assay in human IDO1/HEK293 cells (IDO1 HEK Human). Format: cell-based. As to conditions: HEK293 cells stably expressing human IDO1; 20 hours incubation; absorbance at 490 nm after Ehrlich reagent. On the procedure: HEK293 cells were transfected with a pCDNA-based mammalian expression vector harboring human IDO1 cDNA (NM 002164.2) by electroporation. They were cultured in medium (DMEM with 10% FBS) containing 1 mg/ml G418 for two weeks. Clones of HEK293 cells that stably expressed human IDO1 protein were selected and expanded for IDO inhibition assay.
The human IDO1/HEK293 cells were seeded at 10,000 cells per 50 μL per well with RPMI/phenol red free media contains 10% FBS in a 384-well black wall clear bottom tissue culture plate (Matrix Technologies LLC) 100 nL of certain concentration of compound was then added to each well using ECHO liquid handling systems. The cells were incubated for 20 hours in 37° C. incubator with 5% CO2.
The compound treatments were stopped by adding trichloroacetic acid (Sigma-Aldrich) to a final concentration at 0.2%. The cell plate was further incubated at 50° C. for 30 minute. The equal volume supernatant (20 μL) and 0.2% (w/v) Ehrlich reagent (4-dimethylaminobenzaldehyde, Sigma-Aldrich) in glacial acetic acid were mixed in a new clear bottom 384-well plate. This plate was then incubated at RT for 30 minute. The absorbance at 490 nm was measured on Envision plate reader.
Compound IC50 values were calculated using the counts of 500 nM of a reference standard treatment as one hundred percent inhibition, and counts of no compound but DMSO treatment as zero percent inhibition.
With `O=C(Nc1nc2ccccc2s1)Nc1cc(-c2ccccc2-c2nnn[nH]2)cc2c1OCCCC2c1ccccc1` (stereo not drawn) [Example 18, 1-(7-(2-(1H-tetrazol-5-yl)phenyl)-5-phenyl-2,3,4,5-tetrahydrobenzo[b]oxepin-9-yl)-3-(benzo[d]thiazol-2-yl)urea], the IC50 (in general, the concentration at which inhibition is half-maximal) turned out to be 950 nM.
For `CCC(C)C1CCCOc2c(NC(=O)Cc3ccc(C)cc3)cc(-c3ccccc3-c3nnn[nH]3)cc21` (single isomer, unassigned) [30 (En. 1), N-(7-(2-(1H-tetrazol-5-yl)phenyl)-5-(sec-butyl)-2,3,4,5-tetrahydrobenzo[b]oxepin-9-yl)-2-(p-tolyl)acetamide], inhibition was half-maximal at 4.1 nM (IC50).
The result for `Cc1ccc(NC(=O)Nc2cc(-c3cc(F)ccc3C(=O)O)cc3c2O[C@@H](C)[C@H]3c2ccccc2)cc1` (relative stereo) [Example 114, rel-4-fluoro-2-((2R,3R)-2-methyl-3-phenyl-7-(3-(p-tolyl)ureido)-2,3-dihydrobenzofuran-5-yl)benzoic acid] reads 1300 nM; that for `CC1CCOc2c(Nc3nc4ccccc4o3)cc(-c3ccccc3-c3nnn[nH]3)cc2C1c1ccccc1` (single isomer, unassigned) [Example 51, N-(7-(2-(1H-tetrazol-5-yl)phenyl)-4-methyl-5-phenyl-2,3,4,5-tetrahydrobenzo[b]oxepin-9-yl)benzo[d]oxazol-2-amine], 3.8 nM; that for `Cc1ccc(CC(=O)Nc2cc(-c3ccccc3-c3nnn[nH]3)cc3c2OCCCC3C2CC2)c(F)c1` (single isomer, unassigned) [39 (En. 1)], greater than 6000 nM.
`C=C[C@@H]1Oc2c(NC(=O)Nc3ccc(C)cc3)cc(-c3ccccc3-c3nnn[nH]3)cc2[C@H]1CCC(F)(F)F` (single isomer, unassigned) [Example 101, 1-((trans)-5-(2-(1H-tetrazol-5-yl)phenyl)-3-(3,3,3-trifluoropropyl)-2-vinyl-2,3-dihydrobenzofuran-7-yl)-3-(p-tolyl)urea] registered an IC50 of 7.1 nM.
`CCC1Oc2c(NC(=O)Nc3ccc(C)cc3)cc(-c3ccccc3-c3nnn[nH]3)cc2C1CCC(F)(F)F` (racemic) [Example 102] had an IC50 of 13 nM.
`Fc1ccc2nc(Nc3cc(-c4ccccc4-c4nnn[nH]4)cc4c3OCCCC4c3ccccc3)sc2c1` (single isomer, unassigned) [57 (En. 1), N-(7-(2-(1H-tetrazol-5-yl)phenyl)-5-phenyl-2,3,4,5-tetrahydrobenzo[b]oxepin-9-yl)-6-fluorobenzo[d]thiazol-2-amine]: the IC50 was found to be 849 nM.
Take `Cc1ccc(NC(=O)Nc2cc(-c3ccccc3-c3nnn[nH]3)cc3c2OCCC(C)C3c2ccccc2)cc1` (single isomer, unassigned) [Example 44, 1-(7-(2-(1H-tetrazol-5-yl)phenyl)-4-methyl-5-phenyl-2,3,4,5-tetrahydrobenzo[b]oxepin-9-yl)-3-(p-tolyl)urea]: the IC50 stood at 1.7 nM.
`CCC(C)C1CCCOc2c(NC(=O)Nc3ccc(C)cc3)cc(-c3ccccc3-c3nnn[nH]3)cc21` (single isomer, unassigned) [Example 29, 1-(7-(2-(1H-tetrazol-5-yl)phenyl)-5-(sec-butyl)-2,3,4,5-tetrahydrobenzo[b]oxepin-9-yl)-3-(p-tolyl)urea] registered an IC50 of 18 nM.
With `O=C(Nc1ccc(Cl)cc1F)Nc1cc(-c2ccccc2-c2nnn[nH]2)cc2c1OCCCC2C1CC1` (single isomer, unassigned) [41 (En. 1), 1-(7-(2-(1H-tetrazol-5-yl)phenyl)-5-cyclopropyl-2,3,4,5-tetrahydrobenzo[b]oxepin-9-yl)-3-(4-chloro-2-fluorophenyl)urea], the midpoint of inhibition, the IC50, lay at 25.2 nM.
For `Cc1ccc(NC(=O)Nc2cc(-c3ccccc3-c3nc(=O)o[nH]3)cc3c2OCCCC3C2CC2)cc1` (single isomer, unassigned) [Example 33-1, 1-(5-cyclopropyl-7-(2-(5-oxo-2,5-dihydro-1,2,4-oxadiazol-3-yl)phenyl)-2,3,4,5-tetrahydrobenzo[b]oxepin-9-yl)-3-(p-tolyl)urea], the IC50 is 1.2 nM.
`Cc1ccc(CC(=O)Nc2cc(-c3ccccc3-c3nnn[nH]3)cc3c2OCCCC3C)cc1` (stereo not drawn) [Example 32, N-(7-(2-(1H-tetrazol-5-yl)phenyl)-5-methyl-2,3,4,5-tetrahydrobenzo[b]oxepin-9-yl)-2-(p-tolyl)acetamide] registered an IC50 of 419 nM.
`C=C[C@@H]1Oc2c(NC(=O)Nc3ccc(C)cc3)cc(-c3ccccc3-c3nnn[nH]3)cc2[C@H]1c1ccccc1` (single isomer, unassigned) [Example 89, 1-((trans)-5-(2-(1H-tetrazol-5-yl)phenyl)-3-phenyl-2-vinyl-2,3-dihydrobenzofuran-7-yl)-3-(p-tolyl)urea] yielded an IC50 of 13 nM.
Molecule `Fc1cnc(Nc2cc(-c3ccccc3-c3nnn[nH]3)cc3c2OCCCC3c2ccccc2)nc1` (single isomer, unassigned) [63 (En. 1), N-(7-(2-(1H-tetrazol-5-yl)phenyl)-5-phenyl-2,3,4,5-tetrahydrobenzo[b]oxepin-9-yl)-5-fluoropyrimidin-2-amine] registered an IC50 of 539 nM.
Take `Cc1ccc(NC(=O)Nc2cc(-c3ccccc3-c3nnn[nH]3)cc3c2OCC(O)C(O)C3c2ccccc2)cc1` (single isomer, unassigned) [9 (En. 2), 1-(7-(2-(1H-tetrazol-5-yl)phenyl)-3,4-dihydroxy-5-phenyl-2,3,4,5-tetrahydrobenzo[b]oxepin-9-yl)-3-(p-tolyl)urea]: inhibition was half-maximal at 579 nM (IC50).
Molecule `O=C(Nc1ccccc1F)Nc1cc(-c2ccccc2-c2nnn[nH]2)cc2c1OCCCC2C1CC1` (single isomer, unassigned) [38 (En. 2), 1-(7-(2-(1H-tetrazol-5-yl)phenyl)-5-cyclopropyl-2,3,4,5-tetrahydrobenzo[b]oxepin-9-yl)-3-(2-fluorophenyl)urea] yielded an IC50 of 19.4 nM.
For the molecule `Cc1ccc(CC(=O)Nc2cc(-c3ccccc3-c3nnn[nH]3)cc3c2OCCCC3c2ccccc2)cc1` (single isomer, unassigned) [Example 2-3, N-(7-(2-(1H-tetrazol-5-yl)phenyl)-5-phenyl-2,3,4,5-tetrahydrobenzo[b]oxepin-9-yl)-2-(p-tolyl)acetamide], the midpoint of inhibition, the IC50, lay at 21.4 nM.
For the molecule `FC(F)(F)c1cnc(Nc2cc(-c3ccccc3-c3nnn[nH]3)cc3c2OCCCC3c2ccccc2)nc1` (stereo not drawn) [Example 54, N-(7-(2-(1H-tetrazol-5-yl)phenyl)-5-phenyl-2,3,4,5-tetrahydrobenzo[b]oxepin-9-yl)-5-(trifluoromethyl)pyrimidin-2-amine], it took 432 nM to reach half-maximal inhibition (IC50).
Molecule `O=C(Nc1ccccc1F)Nc1cc(-c2ccccc2-c2noc(=O)[nH]2)cc2c1OCCCC2C1CC1` (stereo not drawn) [Example 35, 1-(5-cyclopropyl-7-(2-(5-oxo-4,5-dihydro-1,2,4-oxadiazol-3-yl)phenyl)-2,3,4,5-tetrahydrobenzo[b]oxepin-9-yl)-3-(2-fluorophenyl)urea] displayed a 50% inhibitory concentration (IC50) of 19.7 nM.
With `Cc1ccc(NC(=O)Nc2cc(-c3ccccc3S(=O)(=O)NC(=O)c3ccccc3)cc3c2OCCCC3c2ccccc2)cc1` (single isomer, unassigned) [Example 61, N-((2-(5-phenyl-9-(3-(p-tolyl)ureido)-2,3,4,5-tetrahydrobenzo[b]oxepin-7-yl)phenyl)sulfonyl)benzamide], it took 2290 nM to reach half-maximal inhibition (IC50).
As to `Cc1cnc(Nc2cc(-c3ccccc3-c3nnn[nH]3)cc3c2OCCCC3c2ccccc2)nc1` (racemic) [55 (Rac), N-(7-(2-(1H-tetrazol-5-yl)phenyl)-5-phenyl-2,3,4,5-tetrahydrobenzo[b]oxepin-9-yl)-5-methylpyrimidin-2-amine], inhibition was half-maximal at 155 nM (IC50).
The molecule `O=C(Nc1ccc(F)cc1F)Nc1cc(-c2ccccc2-c2nnn[nH]2)cc2c1OCCCC2c1ccccc1` (stereo not drawn) [Example 21, 1-(7-(2-(1H-tetrazol-5-yl)phenyl)-5-phenyl-2,3,4,5-tetrahydrobenzo[b]oxepin-9-yl)-3-(2,4-difluorophenyl)urea] had an IC50 of 177 nM.
Take `Cc1ccc(NC(=O)Nc2cc(-c3ccccc3-c3nnn[nH]3)cc3c2OCCC(C)C3C)cc1` (mixture of isomers) [Example 69, 1-(7-(2-(1H-tetrazol-5-yl)phenyl)-4,5-dimethyl-2,3,4,5-tetrahydrobenzo[b]oxepin-9-yl)-3-(p-tolyl)urea]: the midpoint of inhibition, the IC50, lay at 14.6 nM.
`Cc1ccc(CC(=O)Nc2cc(-c3ccccc3-c3nnn[nH]3)cc3c2OCCCC3C2CC2)c(F)c1` (single isomer, unassigned) [39 (En. 2)]: half-maximal inhibition (IC50) was put at 32.6 nM.
The result for `Cc1ccc(NC(=O)Nc2cc(-c3cc(F)ccc3C(=O)O)cc3c2O[C@H](C)[C@H]3c2ccccc2)cc1` (relative stereo) [Example 116, rel-4-fluoro-2-((2R,3S)-2-methyl-3-phenyl-7-(3-(p-tolyl)ureido)-2,3-dihydrobenzofuran-5-yl)benzoic acid] reads 125 nM; that for `C=C[C@H]1Oc2c(NC(=O)Nc3ccc(C)cc3)cc(-c3ccccc3-c3nnn[nH]3)cc2[C@@H]1CCC(F)(F)F` (single isomer, unassigned) [Example 100, 1-((trans)-5-(2-(1H-tetrazol-5-yl)phenyl)-3-(3,3,3-trifluoropropyl)-2-vinyl-2,3-dihydrobenzofuran-7-yl)-3-(p-tolyl)urea], 21 nM.
